Assay results: the supplement of paper PMC10307832

Assays:
Experiment in all cases: relative viability (nuclei count vs DMSO), 5 days (fraction); higher = more cells survive
[1] = tested on: COR-L 105
Procedure, shortened: (§1)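 Relative viability was taken as the ratio of nuclei in treated wells to nuclei in vehicle wells. Lung cancer cell lines in 1536-well plates received compounds by pin tool one day after seeding, either one drug alone or a fixed anchor-drug dose plus five library-drug doses (not always all listed) in √10 steps. Nuclei were counted on 4× images after 5 days of treatment, and values are medians of duplicate plates.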

[2] = tested on: LCLC-103H
Procedure, shortened: as §1

[3] = tested on: NCI-H1792
Procedure, shortened: as §1

[4] = tested on: NCI-H1915
Procedure, shortened: as §1

[5] = tested on: SW 1573
Procedure, shortened: as §1

[6] = tested on: NCI-H23
Procedure, shortened: as §1

[7] = tested on: HARA
Procedure, shortened: as §1

[8] = tested on: NCI-H1437
Procedure, shortened: as §1

[9] = tested on: HCC-366
Procedure, shortened: as §1

[10] = tested on: EMC-BAC-2
Procedure, shortened: as §1

[11] = tested on: NCI-H460
Procedure, shortened: as §1

[12] = tested on: SK-LU-1
Procedure, shortened: as §1

[13] = tested on: CAL-12T
Procedure, shortened: as §1

[14] = tested on: NCI-H2009
Procedure, shortened: as §1

[15] = tested on: NCI-H1395
Procedure, shortened: as §1

[16] = tested on: HOP-62
Procedure, shortened: as §1

[17] = tested on: HCC-827
Procedure, shortened: as §1

[18] = tested on: NCI-H727
Procedure, shortened: as §1

[19] = tested on: A-427
Procedure, shortened: as §1

[20] = tested on: NCI-H2228
Procedure, shortened: as §1

[21] = tested on: NCI-H1755
Procedure, shortened: as §1

`COc1cc2nccc(Oc3ccc(NC(=O)Nc4cc(C)on4)c(Cl)c3)c2cc1OC` [Tivozanib] + Cc1nc(NC(=O)N2CCC[C@H]2C(N)=O)sc1-c1ccnc(C(C)(C)C(F)(F)F)c1 [Alpelisib] (partner 2 µM) gave a relative viability ([1]; first compound 0.01581 µM) of 1.2, a relative viability ([1]; first compound 0.05 µM) of 0.933 and a relative viability ([1]; first compound 0.1581 µM) of 1.04. It also gave a relative viability ([1]; first compound 0.5 µM) of 1.07, a relative viability ([2]; first compound 0.005 µM) of 0.951 and a relative viability ([2]; first compound 0.01581 µM) of 0.938. It also gave a relative viability ([2]; first compound 0.05 µM) of 1.04, a relative viability ([2]; first compound 0.1581 µM) of 0.997 and a relative viability ([2]; first compound 0.5 µM) of 1.01. It also gave a relative viability ([3]; first compound 0.005 µM) of 0.728, a relative viability ([3]; first compound 0.01581 µM) of 0.778 and a relative viability ([3]; first compound 0.05 µM) of 0.786. The relative viability ([3]; first compound 0.1581 µM) was 0.847, the relative viability ([3]; first compound 0.5 µM) was 0.812 and the relative viability ([4]; first compound 0.005 µM) was 1.08. It also gave a relative viability ([4]; first compound 0.01581 µM) of 1.04, a relative viability ([4]; first compound 0.05 µM) of 1.11 and a relative viability ([4]; first compound 0.1581 µM) of 0.99. The relative viability ([4]; first compound 0.5 µM) was 0.961, the relative viability ([5]; first compound 0.005 µM) was 0.796 and the relative viability ([5]; first compound 0.01581 µM) was 0.825. For the same compound, the relative viability ([5]; first compound 0.05 µM) was 0.784, the relative viability ([5]; first compound 0.1581 µM) was 0.639 and the relative viability ([5]; first compound 0.5 µM) was 0.776. It also gave a relative viability ([6]; first compound 0.005 µM) of 0.735, a relative viability ([6]; first compound 0.01581 µM) of 0.651 and a relative viability ([6]; first compound 0.05 µM) of 0.615. For the same compound, the relative viability ([6]; first compound 0.1581 µM) was 0.497, the relative viability ([6]; first compound 0.5 µM) was 0.561 and the relative viability ([7]; first compound 0.005 µM) was 0.911. For the same compound, the relative viability ([7]; first compound 0.01581 µM) was 0.838, the relative viability ([7]; first compound 0.05 µM) was 0.908 and the relative viability ([7]; first compound 0.1581 µM) was 0.877. For the same compound, the relative viability ([7]; first compound 0.5 µM) was 0.798, the relative viability ([8]; first compound 0.005 µM) was 1.02 and the relative viability ([8]; first compound 0.01581 µM) was 1. For the same compound, the relative viability ([8]; first compound 0.05 µM) was 1, the relative viability ([8]; first compound 0.1581 µM) was 0.943 and the relative viability ([8]; first compound 0.5 µM) was 0.959. For the same compound, the relative viability ([9]; first compound 0.005 µM) was 0.297, the relative viability ([9]; first compound 0.01581 µM) was 0.448 and the relative viability ([9]; first compound 0.05 µM) was 0.381. The relative viability ([9]; first compound 0.1581 µM) was 0.51, the relative viability ([9]; first compound 0.5 µM) was 0.388 and the relative viability ([10]; first compound 0.005 µM) was 0.722. For the same compound, the relative viability ([10]; first compound 0.01581 µM) was 0.736, the relative viability ([10]; first compound 0.05 µM) was 0.753 and the relative viability ([10]; first compound 0.1581 µM) was 0.696. It also gave a relative viability ([10]; first compound 0.5 µM) of 0.774, a relative viability ([11]; first compound 0.005 µM) of 0.483 and a relative viability ([11]; first compound 0.01581 µM) of 0.422. The relative viability ([11]; first compound 0.05 µM) was 0.454, the relative viability ([11]; first compound 0.1581 µM) was 0.609 and the relative viability ([11]; first compound 0.5 µM) was 0.543. The relative viability ([12]; first compound 0.005 µM) was 1.01, the relative viability ([12]; first compound 0.01581 µM) was 1.01 and the relative viability ([12]; first compound 0.05 µM) was 1.12. For the same compound, the relative viability ([12]; first compound 0.1581 µM) was 0.645, the relative viability ([12]; first compound 0.5 µM) was 0.907 and the relative viability ([13]; first compound 0.005 µM) was 1.11. For the same compound, the relative viability ([13]; first compound 0.01581 µM) was 1.07, the relative viability ([13]; first compound 0.05 µM) was 1.31 and the relative viability ([13]; first compound 0.5 µM) was 1.32. The relative viability ([14]; first compound 0.005 µM) was 1.16, the relative viability ([14]; first compound 0.01581 µM) was 1.08 and the relative viability ([14]; first compound 0.05 µM) was 1.29. The relative viability ([14]; first compound 0.1581 µM) was 1.22, the relative viability ([14]; first compound 0.5 µM) was 1.19 and the relative viability ([15]; first compound 0.005 µM) was 0.951. The relative viability ([15]; first compound 0.01581 µM) was 1.08, the relative viability ([15]; first compound 0.05 µM) was 1.01 and the relative viability ([15]; first compound 0.1581 µM) was 1.05. For the same compound, the relative viability ([15]; first compound 0.5 µM) was 0.91, the relative viability ([16]; first compound 0.005 µM) was 0.72 and the relative viability ([16]; first compound 0.01581 µM) was 0.729. The relative viability ([16]; first compound 0.05 µM) was 1.06, the relative viability ([16]; first compound 0.1581 µM) was 0.483 and the relative viability ([16]; first compound 0.5 µM) was 0.901. The relative viability ([17]; first compound 0.005 µM) was 0.902, the relative viability ([17]; first compound 0.01581 µM) was 0.992 and the relative viability ([17]; first compound 0.05 µM) was 1.04. It also gave a relative viability ([17]; first compound 0.1581 µM) of 0.98, a relative viability ([17]; first compound 0.5 µM) of 1.02 and a relative viability ([18]; first compound 0.005 µM) of 0.505. For the same compound, the relative viability ([18]; first compound 0.01581 µM) was 0.501, the relative viability ([18]; first compound 0.05 µM) was 0.675 and the relative viability ([18]; first compound 0.5 µM) was 0.615. It also gave a relative viability ([19]; first compound 0.005 µM) of 1.05, a relative viability ([19]; first compound 0.01581 µM) of 1.1 and a relative viability ([19]; first compound 0.05 µM) of 1.12. For the same compound, the relative viability ([19]; first compound 0.1581 µM) was 0.925, the relative viability ([19]; first compound 0.5 µM) was 1.06 and the relative viability ([20]; first compound 0.005 µM) was 0.653. It also gave a relative viability ([20]; first compound 0.01581 µM) of 0.81, a relative viability ([20]; first compound 0.05 µM) of 0.944 and a relative viability ([20]; first compound 0.1581 µM) of 0.743. The relative viability ([20]; first compound 0.5 µM) was 0.72, the relative viability ([21]; first compound 0.005 µM) was 0.925 and the relative viability ([21]; first compound 0.01581 µM) was 0.888. It also gave a relative viability ([21]; first compound 0.05 µM) of 1.01, a relative viability ([21]; first compound 0.1581 µM) of 0.934 and a relative viability ([21]; first compound 0.5 µM) of 0.84.
